# Counter-ions that a name gives are not always drawn.
# Tested on: A549 human lung epithelium cell line
# Test: RANTES production in response to TNF-α from A549 cells
# Type: cell-based
# Details: Homo sapiens, A549, A549 cells, 100 ng/ml TNF-α, read-out: Cellular activity grade (A549) (Cellular IC50)
# Protocol: [The Measurement of RANTES Production in Response to TNF-α from A549 Cells]
# (1) Preparation of A549 Cells
# • The A549 human lung epithelium cell line (ATCC […]) was maintained in Dulbecco's modified Eagle's medium (D-MEM, Nikken Biomedical Institute) supplemented with 10% FCS (Gibco), 100 U/ml penicillin, 100 μg/ml streptomycin, and 2 mM glutamine (culture medium). Forty thousand (4×10^4) cells (80 μl/well) were seeded in each well of 96 well flat-bottom tissue culture plate (Falcon #3072). The plate was allowed to stand for 2 hrs, thus the cells were adhered to the bottom of each well. To the each well was added 10 μl vehicle (1% DMSO), serial dilutions of test compounds in 1% DMSO, or 5 nM Dexamethasone in 1% DMSO as a reference. The mixture (90 μl/well) was incubated for 1 hr at 37° C. After 1 hr, 1 μg/ml TNF-α (10 μl) in culture medium was added to the mixture to obtain 100 μl of reaction mixture. The reaction mixture was cultured for 24 hrs to stimulate the cells with 100 ng/ml TNF-α. Cells with vehicle without TNF-α stimulation were also prepared. (2) Measurement of RANTES Production • Then the concentration of RANTES released from the cells in the supernatants of each well was determined using a quantitative sandwich enzyme immunoassay technique. First, 2 μg/ml mouse anti-huRANTES mAb (R&D Systems, #mAb678) in PBS buffer (pH 7.4, 100 μl) was put in each well of 96-well NUNC fluoro plate (Nalge Nunc, New York USA) (Final 200 ng/well) and the plate was allowed to stand for overnight at 4° C. to be coated by the antibody. Each well of the plate was then washed with 350 μl wash buffer (0.05% Tween-20, 0.85% NaCl, and 25 mM Tris/HCl pH7.4) for three times. Blocking buffer containing 1% BSA (Sigma 99% pure, 100 g), 5% sucrose (Nacalai tesque, 99% pure, 500 g), and 0.02% azide (Nacalai tesque, 100%, 500 g) were added (200 μl) to each well and then the plate was allowed to stand for 4 hours to stabilize the coated antibody. Next, 50 μl supernatants of cell culture prepared in (1) above were put in each well of the 96-well NUNC fluoro plate with coated antibody. Recombinant Human RANTES (Pepro Tech, Inc. #300-06) was used as the standard for the determination of RANTES production (linear range between 1 and 10 ng/ml). Eu-labelled mouse anti-huRANES mAb (60 ng/ml: R&D Systems, #mAb278) in PBS supplemented by 1% BSA and 0.05% Tween 20 was added (50 μl) to each well. The reaction mixtures were incubated at room temperature for 4 hrs. After washing with wash buffer (0.05% Tween-20, 0.85% NaCl, and 25 mM Tris/HCl pH7.4, 350 μl/well) for 5 times with the use of a Sera Washer (Bio-Tech, #MW-96R), the enhancement solution (DELFIA, #1244-405, 100 μl/well) was added to each well. The plate was incubated for 10 minutes at room temperature with moderate shaking. Fluorescent intensity was measured using a DELFIA fluorimeter (Wallac). Excitation was performed at 340 nm and emission was measured at 615 nm. [The Measurement of TNF-α Production in Response to LPS from Peripheral Blood Mononuclear Cells (PBMC)] (1) Preparation of PBMC • Human PBMC were prepared by first obtaining blood from healthy donors and isolating the cells from the blood. The isolation was done by Ficoll gradient-centrifugation method using Ficoll Pacque (Pharmacia #17-1440-02). Within three hours from donation, the isolated PBMC was used. After three times washing with PBS, PBMC were resuspended with RPMI 1640 (Nikken BioMedical Institute) supplemented with 10% FCS (Gibco), 100 U/ml penicillin, 100 μg/ml streptomycin, and 2 mM glutamine (culture medium). The cells (1×10^5 in 150 μL/well) were seeded in each well of 96 well flat-bottom tissue culture plate (Falcon #3072). To the each well was added 20 μl vehicle (1% DMSO), serial dilutions of test compounds in 1% DMSO, or 250 nM Dexamethasone in 1% DMSO as a reference. The mixture (170 μl/well) was incubated for 1 hr at 37° C. After 1 hr, 20 ng/ml LPS (30 μl) in culture medium was added to the mixture to obtain 200 μl of reaction mixture. […]
row,IC50 [nM],Structure (SMILES)
1,< 1000,"O=C1Nc2nc(-c3c(O)cccc3OCC3CC3)cc(C3CCCNC3)c2CO1 (centres unmarked) [Example 18-1, 7-[2-(cyclopropylmethoxy)-6-hydroxyphenyl]-5-(3-piperidinyl)-1,4-dihydro-2H-pyrido[2,3-d][1,3]oxazin-2-one hydrochloride]"

# Target: T1, human IKK-β (Homo sapiens, UniProt O14920)
# T1 construct: A cDNA fragment encoding human IKK-β open reading frame was generated by PCR; His tag (from pcDNA3.1/His C); made in house; host or cells: Sf21 insect cells (baculovirus); substrate made in E. coli
# T1 sequence (O14920 1-756): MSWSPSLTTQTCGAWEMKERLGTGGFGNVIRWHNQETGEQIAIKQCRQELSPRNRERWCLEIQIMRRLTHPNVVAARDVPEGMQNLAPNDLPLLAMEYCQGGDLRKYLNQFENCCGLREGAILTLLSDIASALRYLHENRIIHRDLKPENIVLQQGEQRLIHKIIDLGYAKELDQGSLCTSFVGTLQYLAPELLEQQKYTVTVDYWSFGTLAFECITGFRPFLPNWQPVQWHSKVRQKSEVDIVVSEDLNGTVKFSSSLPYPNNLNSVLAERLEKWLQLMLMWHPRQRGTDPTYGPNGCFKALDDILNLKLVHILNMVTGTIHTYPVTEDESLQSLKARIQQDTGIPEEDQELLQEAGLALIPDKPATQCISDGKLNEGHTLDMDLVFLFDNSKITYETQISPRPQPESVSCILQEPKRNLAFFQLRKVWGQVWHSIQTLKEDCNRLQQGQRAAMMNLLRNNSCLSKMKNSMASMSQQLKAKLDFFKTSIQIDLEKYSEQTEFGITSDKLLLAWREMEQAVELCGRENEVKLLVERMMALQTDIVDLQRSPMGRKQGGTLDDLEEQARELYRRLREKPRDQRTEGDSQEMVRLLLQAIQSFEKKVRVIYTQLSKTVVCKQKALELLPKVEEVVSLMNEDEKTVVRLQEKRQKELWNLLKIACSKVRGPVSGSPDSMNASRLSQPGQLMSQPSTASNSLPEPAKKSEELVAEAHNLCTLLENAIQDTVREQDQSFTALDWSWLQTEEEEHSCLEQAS
# Test: IKK-β kinase inhibitory assay
# Type: biochemical
# Details: compounds as yielded by solid phase synthesis, purity about 40 to 90%, read-out: In vitro activity grade (In vitro IC50)
# Source text: [IKK-β Kinase Inhibitory Assay]
# (1) Preparation of IKK-β Kinase Protein.
# • A cDNA fragment encoding human IKK-β open reading frame was generated by PCR with the use of a pair of primers designed from the published sequence (Woronicz J D et al. (1997) Science 278, 866-869). A template was obtained from Quickclone cDNA (Clontech) using Elongase™ Amplification kit (Life Technologies). The DNA fragments generated by PCR were gel-purified and subcloned into pBluescript. The cDNA fragment cloned in pBluescript was inserted into pcDNA3.1/His C KpnI/NotI, and transferred into pVL1393 SmaI/XbaI (Pharmingen) to construct a baculovirus transfer vector. Then the vector, together with the linearized baculovirus (BaculoGold™, Pharmingen) was used to transfect Sf21 cells (Invitrogen, San Diego, Calif.). Generated recombinant baculovirus was cloned and amplified in Sf21 cells, grown in TNM-FH insect cell medium (Life Technologies, Inc.) supplemented with 10% FCS, […] Gentamycin, 0.1% Pluronic F-68 (Life Technologies, Inc.) as suspension culture (200 ml in 1 L Erlenmeyer flask; 27° C.; 130 rpm). Sf21 cells were infected with this amplified virus with a multiplicity of infection of 5 following standard protocols (Crossen R, Gruenwald S (1997) Baculovirus Expression Vector System Instruction Manual, Pharmingen Corporation) and harvested 48 hrs later. The cells were lysed to obtain the produced chimeric protein of IKK-β kinase fused by histidine (His-tagged IKK-beta). (2) The Preparation of Purified GST-IκBα Fusion Proteins • An expression vector containing the nucleotide sequence encoding fusion protein of GST with amino acid residues 1 to 54 of IκBα under the control of an IPTG-inducible promoter was constructed. The expression vector was introduced in E. coli and the transformant was cultured and lysed to obtain a GST-IκBα fusion protein. Then the resulting GST-IκBα fusion protein was purified and biotinated for kinase assay. (3) The Measurement of IKK-β Kinase Activity • The 96-well format kinase assay of IKK-β were performed to test the inhibitory activity of the compounds of the present invention. First, 5 μl of a test compound was put in the presence of 2.5% dimethyl sulfoxide (DMSO) in each well in a U-bottomed 96-well plate (Falcon). For control wells of background (BG) and total phosphorylation (TP), 5 μl of 2.5% DMSO was put. Recombinant IKK-β (final 0.6 μg/ml) and bio-GST-IκBα (1-54) (final 0.2 μM) were diluted in 25 μl of 2×kinase buffer β (40 mM Tris-HCl, pH 7.6, 40 mM MgCl2, 40 mM β-glycerophosphate, 40 mM p-nitrophenylphosphate, 2 mM EDTA, 40 mM creatine phosphate, 2 mM DTT, 2 mM Na3VO4, 0.2 mg/ml BSA and 0.8 mM phenylmethylsulfonyl fluoride) and transferred to the 96-well plate. Bio-GST-IκBα (1-54) in 25 μl of 2×kinase buffer β without IKK-β was transferred to BG wells. Then 20 μl of 12.5 μM ATP, 62.5 μCi/ml [γ-^33P] ATP (Amersham Pharmacia Biotech) was added and the resulting mixture was incubated for 2 hrs at room temperature. The kinase reactions were terminated by the addition of 150 μl of termination buffer (100 mM EDTA, 1 mg/ml BSA, 0.2 mg NaN3). One hundred and fifty μl of the sample were transferred to a streptavidin-coated, white MTP (Steffens Biotechniche Analysen GmbH #08114E14.FWD) to capture the biotinylated substrates. After 1 hr of incubation, non-bound radioactivity was eliminated by washing the wells five times with 300 μl of washing buffer including 0.9% NaCl and 0.1% (w/v) Tween-20 with the use of a MW-96 plate washer (BioTec). The bound radioactivity was determined after the addition of 170 μl MicroScint-PS scintillation cocktail (Packard) using a TopCount scintillation counter. [Syk Tyrosine Kinase Inhibitory Assay for Selectivity] (1) Preparation of Syk Protein • A cDNA fragment encoding human Syk openreading frame was cloned from total RNA of human Burkitt's lymphoma B cell lines, Raji (American Type Culture Collection), with the use of RT-PCR method.
row,Structure (SMILES),IC50 [nM]
1,N#Cc1c(C2CNc3ccccc3C2)cc(-c2ccccc2O)nc1N (centres unmarked) [Example 1-16],> 10000
2,N#Cc1c([C@@H]2Cc3ccccc3CN2)cc(-c2ccccc2O)nc1N [Example 1-27],2000 to 10000
3,CCCCOc1cccc(O)c1-c1cc(C2CCNCC2)c(C#N)c(N)n1 [Example 2-72],< 500

# Results, then the compound that gave them:
row,IC50 [nM],Structure (SMILES)
1,< 500,N#Cc1c(NCCN)cc(-c2c(O)cccc2OCC2CC2)nc1N [Example 34-14]
2,< 500,"Cn1c(=O)[nH]c2nc(-c3c(O)cccc3OCC3CC3)cc(C3CCCNC3)c2c1=O (centres unmarked) [Example 10-2, 7-(2-Cyclopropylmethoxy-6-hydroxy-phenyl)-3-methyl-5-piperidin-3-yl-1H-pyrido[2,3-d]pyrimidine-2,4-dione]"
3,> 10000,"N#Cc1c(C2CCCNC2)cc(-c2ccccc2O)nc1N1CCNCC1 (centres unmarked) [Example 4-5, 6-(2-hydroxyphenyl)-2-(1-piperazinyl)-4-(3-piperidinyl)nicotinonitrile dihydrochloride]"
4,> 10000,N#Cc1c(N2CCCCC2)cc(-c2ccccc2O)nc1N [Example 34-05]

# From patent US6984649B1, “Pyridine derivatives” (Bayer Aktiengesellschaft, priority 2000, dated 2006)
